From ChEMBL document CHEMBL1121558, “Studies on several 7-substituted N,N-dimethyltryptamines” (J Med Chem, 1980)

Key:
[1] = molecular target: Serotonin (5-HT) receptor; experiment: Compound was evaluated for binding affinity towards 5-hydroxytryptamine receptor in isolated rat fundus preparation measured as pA2
Rattus norvegicus = organism: Rattus norvegicus; experiment: Effective dose was determined for the behavioral (interoceptive cues) activity of rats; format: functional

Compound	pA2 [1]	ED50 (Rattus norvegicus)
COc1cc2c(CCN(C)C)c[nH]c2c(OC)c1OC	5.98	
COc1cc(OC)c2[nH]cc(CCN(C)C)c2c1	5.5	3.38 mg/kg
Cc1cccc2c(CCN(C)C)c[nH]c12	6.29	
COc1cc(C)c2[nH]cc(CCN(C)C)c2c1	6.61	1.54 mg/kg
CCc1cccc2c(CCN(C)C)c[nH]c12	6.31	
CN(C)CCc1c[nH]c2c(Br)cccc12	6.51	
COc1ccc2c(CCN(C)C)c[nH]c2c1		0.4 mg/kg
COc1ccc(OC)c(CC(C)N)c1 (stereo not given)		0.59 mg/kg
